Measurements reported in article PMC11982498 (Redox Biology, 2025).

Columns and labels:
SH-SY5Y cells = experiment: MTT cytotoxicity assay, SH-SY5Y; type: cell-based
Experimental: SH-SY5Y cells, HepG2 cells, HK-2 cells and HT-22 cells were seeded on 96-well plates (5.0×10^3 per well) with 100 μL of culture medium, and incubated for 12 h at 37 °C in a humidified atmosphere with 5% CO2, and then exposed to various concentrations of B14. After 48 h of treatment at 37 °C in a humidified atmosphere with 5% CO2, 100 μL of 0.5 mg/mL MTT solution was added to each well, and the mixture was further incubated for 4 h. The cells in each well were then treated with DMSO (200 μL for each well), and the culture medium was siphoned off, and the absorbance was recorded at 570 nm. All drug doses were parallel tested in triplicate, and the cytotoxicity was evaluated based on the percentage of cell survival in a dose-dependent manner regarding the negative control. The final IC50 values were determined by using Graph Pad Prism 9.0.

[1] = tested on: bio-BCL-2 (BCL-2 IM) (DNA, i motif) CAGCCCCGCTCCCGCCCCCTTCCTCCCGCGCCCGCCCCT; experiment: SPR; settings: K+ 100 mM; 20 mM MES, pH 5.5, 25 °C
Aβ1-42 [2] = target: T1, Aβ1-42 (Homo sapiens, UniProt P05067); experiment: Congo red binding assay; type: biochemical; settings: 20 μM compound, 72 h
T1 construct: Aβ1-42 was purchased from Gill Biochemicals Ltd (Shanghai, China); purchased Gill Biochemicals Ltd (Shanghai, China)
T1 sequence (P05067 672-713 limits assumed): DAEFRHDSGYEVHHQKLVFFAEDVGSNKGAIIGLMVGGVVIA
Experimental: (§1) A total of 30 μM Congo red (Aladdin, Shanghai, China) solution (20 mM potassium phosphate, 50 mM NaCl, pH 7.4) was prepared and filtered with a 0.45 μm filter. The Aβ1-42 solutions (30 μM) were co-incubated with B14 (20 μM), A22 (20 μM), or Curcumin (20 μM) at 37 °C protected from light for 72h. The Aβ1-42 solution was mixed with equal volume of Congo red solution, followed by incubation for 30 min. A spectral region from 400 nm to 650 nm was measured by using a UV–vis spectrophotometer (AoE, China).
as §1, with “red” for “red (Aladdin, Shanghai, China)”, “μM) and” for “μM), A22 (20 μM), or”, “solution and incubated” for “solution, followed by incubation”, “analyzed” for “measured”, “UV-vis” for “UV–vis”

[3] = tested on: MDA, SOD, GSH-Px, CAT in hippocampus of APP/PS1 mice; experiment: Biochemical parameters analysis (oxidative stress) in hippocampus; type: in vivo
Description: Five months old male APP/PS1 mice, weighing 25–33 g, were purchased from Guangdong Medical Laboratory Animal Center and housed in the Laboratory Animal Center of Sun Yat-sen University (Guangzhou, China) for experimentation. All procedures were approved by the Animal Care and Use Committee of Sun Yat-sen University and complied with legal requirements and national guidelines for the care and maintenance of laboratory animals (Approval No. SYSU-IACUC-2024-002032). The mice were housed in a specific pathogen-free environment with a controlled temperature of 22 ± 1 °C and a 12-h dark/light cycle. The mice were fed with a standard diet, and 30 mice were randomly divided into 6 groups (N = 5). Compound B14 was dissolved in saline and administered at doses of 10, 20, or 40 mg/kg. APP/PS1 male mice were grown until 6 months of age, and then injected intraperitoneally with compound B14 every other day for 60 days. […]
The hippocampi were homogenized in normal saline containing protease inhibitors. The homogenate was centrifuged at 2500 rpm for 10 min, and the protein concentration in the supernatant was measured by using the bicinchoninic acid (BCA, Beyotime, Jiangsu, China) method. The levels of malondialdehyde (MDA) and the activities of superoxide dismutase (SOD), glutathione peroxidase (GSH-Px) and […] (CAT) were determined by using relevant assay kits (Beyotime, Jiangsu, China).

[4] = tested on: Aβ deposition in hippocampus of APP/PS1 mice; experiment: Immunofluorescence of hippocampal Aβ deposition; type: in vivo; settings: B14 10, 20, 40 mg/kg i.p. every other day
Description: Five months old male APP/PS1 mice, weighing 25–33 g, were purchased from Guangdong Medical Laboratory Animal Center and housed in the Laboratory Animal Center of Sun Yat-sen University (Guangzhou, China) for experimentation. All procedures were approved by the Animal Care and Use Committee of Sun Yat-sen University and complied with legal requirements and national guidelines for the care and maintenance of laboratory animals (Approval No. SYSU-IACUC-2024-002032). The mice were housed in a specific pathogen-free environment with a controlled temperature of 22 ± 1 °C and a 12-h dark/light cycle. The mice were fed with a standard diet, and 30 mice were randomly divided into 6 groups (N = 5). Compound B14 was dissolved in saline and administered at doses of 10, 20, or 40 mg/kg. APP/PS1 male mice were grown until 6 months of age, and then injected intraperitoneally with compound B14 every other day for 60 days. Behavioral experiments were then conducted, and tissue specimens were collected for biochemical analysis.

Aβ1-42 [5] = target: T1, Aβ1-42; experiment: Transmission electron microscopy of Aβ1-42 fibrils; type: biochemical; settings: 20 μM compound, 72 h
Experimental: (§2) TEM experiment was carried out following a published method without significant modification, and the Aβ1-42 solution (100 μM) was co-incubated with B14 (20 μM) or Curcumin (20 μM) at 37 °C for 72h. The samples were dropped to a carbon-coated grid, stained with 2 % phosphotungstic acid, and then dried at room temperature. The morphology of Aβ1-42 fiber was observed on a JEM-1200EX II transmission electron microscope (Jeol, Japan).
as §2, with “The” for “TEM experiment was carried out following a published method without significant modification, and the”, “B14 solution” for “B14”, “2%” for “2 %”

SMILES: O=C(CCN1CCOCC1)Nc1ccc2c(c1)c(=O)c1cc(NC(=O)CCN3CCOCC3)ccc1n2-c1ccc2occc2c1 [Compound B14]
- toxicity to SH-SY5Y cells (viability) (SH-SY5Y cells): no significant toxicity to SH-SY5Y cells
- IC50 (SH-SY5Y cells; Homo sapiens, SH-SY5Y, incubation for 48 h): > 100 µM
- KD [1]: 2.13 µM
- absorbance of Congo red in the Aβ1-42 sample (Aβ1-42 [2]): significantly reduced
- MDA level [3]: reduce the levels of lipid peroxides MDA
- levels of antioxidant enzymes [3]: restore the levels of antioxidant enzymes (SOD, GSH-Px, and CAT)
- hippocampal Aβ deposition [4]: significantly reduced in a dose-dependent manner
- ultrastructure of Aβ1-42 fibers (TEM) (Aβ1-42 [5]): formation of protofibrils or amorphous oligomers was significantly reduced
